From US20050143366A1, “Compounds for diagnosis, treatment and prevention of bone injury and metabolic disorders” (priority 2003, published 2005)

Columns and labels:
[1] = Binding to microcrystalline hydroxyapatite from dilute aqueous solution; settings: for % Adsorbed: 10^-5 M in 99:1 H2O:DMSO, 0.5% (w/v) slurried HA in Tris, mixed about 4 minutes, UV of supernatant; for Binding Index: Tetracycline positive control = 100
Excerpt: The ability of the compounds of the present invention to act as bone targeted pharmaceuticals is estimated initially by determination of the ability of the compounds to be bound to microcrystalline hydroxyapatite [Ca10(PO4)6.OH2] (HA) from a dilute aqueous solution. Solutions of test compounds are constructed in about 99: 1, v/v, H2O:dimethylsulfoxide (DMSO) at 10^−5M. These solutions are taken for determination of electronic photometric absorption spectra scanning from λ=500-190 nm. Absorption maxima (λmax) and extinction coefficients (ε) are determined using the Beer-Lambert law. […] These solutions and slurries are mixed for about 4 minutes, then centrifuged for about 3 minutes at 10,000×g. Supernatants are taken for UV absorption spectrometry at previously determined λmax. Concentrations of test compound are determined and the extent of binding is calculated. Tetracycline is included as a positive control compound.

[2] = system: bone loss associated with OVX; assay: Whole femoral density in ovariectomized rats, ED50 for preventing bone loss; format: in vivo, Sprague-Dawley female rats; settings: dosing 3 times a week for about 6 weeks, dose preventing about 50% of the bone loss, by interpolation; for ED50: Rattus norvegicus, 1008 h, read-out: ED50 (nmol/kg) for preservation of Femoral Mass
Description: In vivo experiments—Bilaterally ovariectomized and sham operated Sprague-Dawley female rats (150-170 g) from Harlan Laboratories (Indianapolis, Ind.) are housed on about a 12 hour dark/light cycle at 22° C. with ad libitum access to tap water and food (Purina Laboratory Rodent Diet 5001: 0.95% calcium, 0.67% total phosphorous, and 0.40% non-phytate phosphorous). The rats are randomly assigned into groups of about 6 to 10 animals. Compound administration begins about 4 days after surgery. […] All compounds are dissolved in 5% DMSO in corn oil. After about 6 weeks of dosing, animals are euthanized by carbon dioxide asphyxiation. Blood is collected by cardiac puncture, and uteri and both left and right femurs are removed. Fresh weights of uteri are obtained. All animal procedures and care are approved by the internal animal care and use committee to ensure compliance with NIH guidelines. Determination of whole femoral density.—Following removal, femurs are rubbed clean of soft tissue using gauze, and femur fresh weights are measured. Femurs are then submerged in distilled water under a vacuum for about 1 hour to completely hydrate the femurs. Densities are determined by Archimedes' Principle using the following formula: density=[mass of hydrated femur/(mass of hydrated femur-mass of hydrated femur submerged in water)]*density of water at ambient temperature. The dose that is effective in preventing about 50% of the bone loss associated with OVX (ED50) is determined by interpolation.

[3] = system: bone strength of femora from OVX rats; assay: Blunt indentation force to failure test of the distal femoral metaphysis; format: in vivo; settings: FIG. 1
Description: FIG. 1 is a bar graph showing the distal femur strength of animals including those treated with an exemplary compound of the present invention.
Bone density is not necessarily the equivalent to bone strength, so an additional test (blunt indentation force of the distal metaphysis) is performed as well. With reference to FIG. 1, as a measure of bone mechanical competence, a blunt indentation force to failure test is performed on femora from about 6-week-old OVX rats. Sham operated animals are simultaneously tested as a control.

| Molecule | % Adsorbed [1] | Binding Index [1] | ED50 [2] | bone strength (blunt indentation force to failure, distal femur) [3] | ED50 (nmol/kg) for preservation of Femoral Mass [2] | effect on bone strength (blunt indentation force to failure) ([3]; at a normal dose) |
| --- | --- | --- | --- | --- | --- | --- |
| C[C@]12CC[C@@H]3c4ccc(O)cc4CC[C@H]3[C@@H]1CC[C@@H]2O [17-β-estradiol, reference compound] | −4.0% | −8 | 10 nmol/kg | completely protect against osteopenia | – | – |
| NC(=O)c1c(O)ccc(N)c1O [3-amino-2,6-dihydroxybenzamide, reference compound] | 25.4% | 49 | – | – | – | – |
| COc1ccc(NC(=O)CCCCC(=O)OC2CCC3C4CCc5cc(O)ccc5C4CCC23C)c(O)c1C(N)=O (centres unmarked) [BTE2-B2] | 99.1% | 192 | 9 nmol/kg | – | – | – |
| Raloxifene [reference compound] | – | – | – | – | 210 nmol/kg | ~30% |
| CC12CCC3c4ccc(O)cc4CCC3C1CCC2OC(=O)CCC(=O)Nc1ccc(O)c(C(N)=O)c1O (centres unmarked) [BTE2-A1] | 54% | 105 | 8 nmol/kg | – | – | – |
| COc1ccc(NC(=O)CCC(=O)OC2CCC3C4CCc5cc(O)ccc5C4CCC23C)c(O)c1C(N)=O (centres unmarked) [BTE2-A2] | 91.7% | 178 | 19 nmol/kg | – | – | – |
